Values of other authors in patent US8835508B2, “Stable aqueous solution containing sodium pyruvate, and the preparation and use thereof” (priority 2006, dated 2014).
Read-outs that look alike come from different tables or passages of the source.

Settings: for content of dimer: 3.0 M (3,000 mM) pure NaPyr in water, room temperature

SMILES: CC(=O)C(=O)[O-].[Na+] [NaPyr, sodium pyruvate]
- content of dimer (pH 7.3, after 24 hours): 9.1%
- content of dimer (pH 7.3, after 48 hours): 18.4%
- stability of aqueous solution containing NaPyr (22° C., pH >6.0, HPLC and NMR): unstable
